Active and inactive are the calls of the source. The rule behind the calls is not given here.

Assay [1] relates to NCI-H460. The experiment in a line: Antitumor activity against human H460 cells xenografted in CD-1 Foxn1 nude mouse assessed as reduction in colony forming cells under hypoxic condition at 13.3 umol/kg, iv treated 5 mins after gamma irradiation measured after 18 hrs by excision assay. The assay is classed as functional, organism-based.
The test system of assay [2] is SiHa. The experiment in a line: Antitumor activity against human SiHa cells xenografted in CD-1 Foxn1 nude mouse assessed as log reduction in colony forming cells under hypoxic condition at 42 umol/kg, iv treated 5 mins after gamma irradiation measured after 18 hrs by excision assay. The assay is classed as functional.
Assay [3] relates to HT-29. The experiment in a line: Cytotoxicity against human HT-29 cells incubated for 4 hrs under hypoxic condition measured after 5 days by SRB assay. The assay is classed as functional, cell-based. On the technique in general: The SRB assay estimates cell density from bound dye.
The subject of assay [4] is HT-29. Nature of the assay: Cytotoxicity against human HT-29 cells incubated for 4 hrs under oxic condition measured after 5 days by SRB assay. The assay is classed as functional, cell-based.
Assay [5] has as its system SiHa. The experiment in a line: Ratio of IC50 for human SiHa cells under oxic condition to IC50 for human SiHa cells under hypoxic condition. The assay is classed as functional.
Assay [6] deals with HT-29. Nature of the assay: Ratio of IC50 for human HT-29 cells under oxic condition to IC50 for human HT-29 cells under hypoxic condition. Format: functional.
Assay [7] concerns SiHa. The experiment in a line: Cytotoxicity against human SiHa cells incubated for 4 hrs under hypoxic condition measured after 5 days by SRB assay. The assay is classed as functional, cell-based.
In assay [8] the test system is SiHa. The experiment in a line: Cytotoxicity against human SiHa cells incubated for 4 hrs under oxic condition measured after 5 days by SRB assay. The assay is classed as functional, cell-based.
In another assay the test system is CWR22R. Nature of the assay: Antitumor activity against human 22Rv1 cells xenografted in CD-1 Foxn1 nude mouse assessed as reduction in colony forming cells under hypoxic condition at 30 umol/kg, iv treated 5 mins after gamma irradiation measured after 18 hrs by excision assay. Format: functional, organism-based. In general terms: Xenograft models place foreign cells or tissue in a host animal.

A further assay concerns HCT-116. Nature of the assay: Antitumor activity against human HCT116 cells xenografted in CD-1 Foxn1 nude mouse assessed as reduction in colony forming cells at 56 umol/kg, iv treated 5 mins after gamma irradiation measured after 18 hrs by excision assay. Format: functional, organism-based.
The subject of assay [9] is NCI-H460. Nature of the assay: Antitumor activity against human H460 cells xenografted in CD-1 Foxn1 nude mouse assessed as reduction in colony forming cells under hypoxic condition at 75 umol/kg, iv treated 5 mins after gamma irradiation measured after 18 hrs by excision assay. Format: functional, organism-based.
A further assay deals with NCI-H1299. Nature of the assay: Antitumor activity against human H1299 cells xenografted in CD-1 Foxn1 nude mouse assessed as reduction in colony forming cells at 75 umol/kg, iv treated 5 mins after gamma irradiation measured after 18 hrs by excision assay. Format: functional, organism-based.

For the molecule `O=C(c1ccc(OCCN2CCOCC2)cc1)N1CC(CCl)c2c1cc([N+](=O)[O-])c1cc(S(=O)(=O)NCCOP(=O)(O)O)ccc21` (stereo unspecified), in the assay with NCI-H460 [1], the result was inactive. The outcome with SiHa [2] was Active.
For `CN(C)c1ccc2[nH]c(C(=O)N3CC(CCl)c4c3cc(N)c3cc(S(=O)(=O)NCCO)ccc43)cc2c1` (stereo unspecified), the result with HT-29 [3], in the assay on HT-29 [4], in the assay with SiHa [7] and with SiHa [8] was Active. Besides, the “Ratio IC50” value in the assay with SiHa [5] and in the assay with HT-29 [6] was 1 in each case.
Consider `CCN(CC)CCOc1ccc2[nH]c(C(=O)N3CC(CCl)c4c3cc([N+](=O)[O-])c3cc(S(=O)(=O)NCCO)ccc43)cc2c1` (stereo unspecified), for which the “Ratio IC50” value in the assay with SiHa [5] and in the assay on HT-29 [6] was 27 - 68 each time.
As for `CN(C)CCOc1ccc2[nH]c(C(=O)N3CC(CCl)c4c3cc([N+](=O)[O-])c3cc(C(=O)NCCO)ccc43)cc2c1` (stereo unspecified), the outcome in the assay on HT-29 [3] and with HT-29 [4] was Active.
Regarding `Nc1cc2c(c3ccc(S(=O)(=O)NCCO)cc13)C(CCl)CN2C(=O)/C=C/c1ccc(OCCCN2CCOCC2)cc1` (stereo unspecified), the outcome with HT-29 [3], with HT-29 [4], in the assay with SiHa [7] and with SiHa [8] was Active. The “Ratio IC50” value in the assay with SiHa [5] and in the assay with HT-29 [6] was 1 each time.
Regarding `O=C(c1cc2cc(OCCCN3CCOCC3)ccc2[nH]1)N1CC(CCl)c2c1cc([N+](=O)[O-])c1cc(S(=O)(=O)NCCOP(=O)(O)O)ccc21` (stereo unspecified), the outcome in the assay with CWR22R, in the assay with HCT-116, with NCI-H460 [9] and in the assay with NCI-H1299 was Active. Also, the Activity with SiHa [2] was over 1.
As for `CN(C)CCOc1ccc2[nH]c(C(=O)N3CC(CCl)c4c3cc(N)c3cc(S(=O)(=O)NCCO)ccc43)cc2c1` (stereo unspecified), the result with HT-29 [3], in the assay with HT-29 [4], with SiHa [7] and in the assay with SiHa [8] was Active. The “Ratio IC50” value in the assay on SiHa [5] and in the assay on HT-29 [6] was 1 throughout.
With `Nc1cc2c(c3ccc(S(=O)(=O)NCCO)cc13)C(CCl)CN2C(=O)c1cc2cc(OCCN3CCOCC3)ccc2[nH]1` (stereo unspecified), the outcome with HT-29 [3], with HT-29 [4], in the assay on SiHa [7] and with SiHa [8] was Active. Besides, the “Ratio IC50” value in the assay with SiHa [5] and with HT-29 [6] was 1 in each case.
For the molecule `CN(C)CC(=O)Nc1ccc2[nH]c(C(=O)N3CC(CCl)c4c3cc(N)c3cc(S(=O)(=O)NCCO)ccc43)cc2c1` (stereo unspecified), the outcome in the assay with HT-29 [3], in the assay on HT-29 [4], with SiHa [7] and in the assay on SiHa [8] was Active. The “Ratio IC50” value in the assay with SiHa [5] and in the assay on HT-29 [6] was 1 each time.
As for `O=C(/C=C/c1ccc(OCCCN2CCOCC2)cc1)N1CC(CCl)c2c1cc([N+](=O)[O-])c1cc(S(=O)(=O)NCCOP(=O)(O)O)ccc21` (stereo unspecified), the outcome in the assay with NCI-H460 [9] and in the assay on SiHa [2] was Active.
On to `CN(C)CCOc1ccc2[nH]c(C(=O)N3CC(CCl)c4c3cc([N+](=O)[O-])c3cc(S(=O)(=O)NCCO)ccc43)cc2c1` (stereo unspecified), for which the outcome with HT-29 [3] and in the assay on HT-29 [4] was Active.
As for `CN(C)CCC(=O)Nc1ccc2[nH]c(C(=O)N3CC(CCl)c4c3cc(N)c3cc(S(=O)(=O)NCCO)ccc43)cc2c1` (stereo unspecified), the outcome with HT-29 [3], in the assay on HT-29 [4], in the assay on SiHa [7] and in the assay on SiHa [8] was Active. The “Ratio IC50” value with SiHa [5] and in the assay with HT-29 [6] was 1 each time.
Consider `CN(C)Cc1ccc2[nH]c(C(=O)N3CC(CCl)c4c3cc([N+](=O)[O-])c3cc(S(=O)(=O)NCCOP(=O)(O)O)ccc43)cc2c1` (stereo unspecified), for which the result with NCI-H460 [9] was inactive. Further, in the assay on SiHa [2], the outcome was Active.
Consider `CN(C)Cc1ccc2[nH]c(C(=O)N3CC(CCl)c4c3cc(N)c3cc(S(=O)(=O)NCCO)ccc43)cc2c1` (stereo unspecified), for which the outcome in the assay on HT-29 [3], in the assay on HT-29 [4], in the assay with SiHa [7] and in the assay with SiHa [8] was Active. The “Ratio IC50” value with SiHa [5] and in the assay with HT-29 [6] was 1 throughout.
Consider `COc1cc2cc(C(=O)N3CC(CCl)c4c3cc(N)c3cc(S(=O)(=O)NCCO)ccc43)[nH]c2c(OC)c1OC` (stereo unspecified), for which the result in the assay with HT-29 [3], in the assay with HT-29 [4], in the assay on SiHa [7] and with SiHa [8] was Active. The “Ratio IC50” value in the assay on SiHa [5] and in the assay on HT-29 [6] was 1 in each case.
`O=C(c1cc2cc(OCCN3CCOCC3)ccc2[nH]1)N1CC(CCl)c2c1cc([N+](=O)[O-])c1cc(S(=O)(=O)NCCO)ccc21` (stereo unspecified): the outcome in the assay with HT-29 [3] and in the assay with SiHa [7] was inactive.
On to `CN(C)CCCOc1ccc2[nH]c(C(=O)N3CC(CCl)c4c3cc([N+](=O)[O-])c3cc(S(=O)(=O)NCCOP(=O)(O)O)ccc43)cc2c1` (stereo unspecified), for which the result with CWR22R, in the assay with HCT-116 and with NCI-H1299 was Active.
For the molecule `O=C(NCCOP(=O)(O)O)c1ccc2c3c(cc([N+](=O)[O-])c2c1)N(C(=O)c1cc2cc(OCCN4CCOCC4)ccc2[nH]1)CC3CCl` (stereo unspecified), the Activity with SiHa [2] is recorded as over 1.
Take `Nc1cc2c(c3ccc(S(=O)(=O)NCCO)cc13)C(CCl)CN2C(=O)CCN1CCOCC1` (stereo unspecified): the result in the assay on HT-29 [3], in the assay with HT-29 [4], with SiHa [7] and with SiHa [8] was Active. The “Ratio IC50” value in the assay on SiHa [5] and in the assay on HT-29 [6] was 1 throughout.
In the case of `O=C(c1cc2cc(OCCCN3CCOCC3)ccc2[nH]1)N1CC(CCl)c2c1cc([N+](=O)[O-])c1cc(S(=O)(=O)NCCO)ccc21` (stereo unspecified), the result in the assay on HT-29 [3] and with SiHa [7] was inactive.
On to `O=C(NCCOP(=O)(O)O)c1ccc2c3c(cc([N+](=O)[O-])c2c1)N(C(=O)/C=C/c1ccc(OCCN2CCOCC2)cc1)CC3CCl` (stereo unspecified), for which the outcome in the assay on NCI-H460 [9] and with SiHa [2] was Active.
On to `CCN(CC)CCOc1ccc2[nH]c(C(=O)N3CC(CCl)c4c3cc(N)c3cc(S(=O)(=O)NCCO)ccc43)cc2c1` (stereo unspecified), for which the outcome in the assay on HT-29 [3], in the assay with HT-29 [4], in the assay with SiHa [7] and in the assay with SiHa [8] was Active. The “Ratio IC50” value with SiHa [5] and in the assay on HT-29 [6] was 1 throughout.
With `O=C(CCN1CCOCC1)N1CC(CCl)c2c1cc([N+](=O)[O-])c1cc(S(=O)(=O)NCCOP(=O)(O)O)ccc21` (stereo unspecified), the outcome with NCI-H460 [9] was inactive. Moreover, the result in the assay on SiHa [2] was Active.
For the molecule `Nc1cc2c(c3ccc(S(=O)(=O)NCCO)cc13)C(CCl)CN2C(=O)/C=C/c1ccc(OCCN2CCOCC2)cc1` (stereo unspecified), the outcome in the assay on HT-29 [3], in the assay on HT-29 [4], in the assay on SiHa [7] and in the assay on SiHa [8] was Active. The “Ratio IC50” value in the assay with SiHa [5] and in the assay on HT-29 [6] was 1 in each case.
Turning to `Nc1cc2c(c3ccc(S(=O)(=O)NCCO)cc13)C(CCl)CN2C(=O)c1cc2cc(OCCCN3CCOCC3)ccc2[nH]1` (stereo unspecified), the result in the assay with HT-29 [3], in the assay on HT-29 [4], in the assay on SiHa [7] and with SiHa [8] was Active. In addition, the “Ratio IC50” value with SiHa [5] and in the assay with HT-29 [6] was 1 throughout.
In the case of `CN(C)Cc1ccc2[nH]c(C(=O)N3CC(CCl)c4c3cc([N+](=O)[O-])c3cc(S(=O)(=O)NCCO)ccc43)cc2c1` (stereo unspecified), the “Ratio IC50” value in the assay with SiHa [5] and with HT-29 [6] was 27 - 68 throughout.
As to `CN(C)CCCOc1ccc2[nH]c(C(=O)N3CC(CCl)c4c3cc([N+](=O)[O-])c3cc(S(=O)(=O)NCCO)ccc43)cc2c1` (stereo unspecified), the “Ratio IC50” value in the assay on SiHa [5] and in the assay with HT-29 [6] was 27 - 68 throughout.
Turning to `CN(C)CCCOc1ccc2[nH]c(C(=O)N3CC(CCl)c4c3cc(N)c3cc(S(=O)(=O)NCCO)ccc43)cc2c1` (stereo unspecified), the outcome in the assay with HT-29 [3], with HT-29 [4], with SiHa [7] and in the assay with SiHa [8] was Active. Further, the “Ratio IC50” value with SiHa [5] and in the assay on HT-29 [6] was 1 each time.
For the molecule `CN(C)CCOc1ccc2[nH]c(C(=O)N3CC(CCl)c4c3cc([N+](=O)[O-])c3cc(C(=O)NCCOP(=O)(O)O)ccc43)cc2c1` (stereo unspecified), the result in the assay with CWR22R, in the assay on HCT-116, with NCI-H1299 and with SiHa [2] was Active.
In the case of `Nc1cc2c(c3ccc(S(=O)(=O)NCCO)cc13)C(CCl)CN2C(=O)c1ccc(OCCN2CCOCC2)cc1` (stereo unspecified), the outcome in the assay with HT-29 [3], in the assay with HT-29 [4], with SiHa [7] and in the assay on SiHa [8] was Active. For the same molecule, the “Ratio IC50” value with SiHa [5] and in the assay on HT-29 [6] was 1 in each case.

For the origin of these results see ChEMBL document CHEMBL4038307, “Influence of a Basic Side Chain on the Properties of Hypoxia-Selective Nitro Analogues of the Duocarmycins: Demonstration of Substantial Anticancer Activity in Combination with Irradiation or Chemotherapy” (J Med Chem, 2017).
